Measured values as given in patent EP2131651B1 (Sarentis Therapeutics, Inc., priority 2007, dated 2013).
Square brackets hold non-standard residues; d marks the D form. Peptide text beside a SMILES is read from it. Ala(indol-4-yl) = N[C@@H](Cc1cccc2[nH]ccc12)C(=O)O; NMeR = CN[C@@H](CCCNC(=N)N)C(=O)O; Tle = CC(C)(C)[C@H](N)C(=O)O; Dab = NCC[C@H](N)C(=O)O

Legend:
[1] = tested on: intact rabbit cornea; test: In vitro cytotoxicity study, percentage of living cells; format: cell-based; conditions: for corneal cells died, compared to untreated cells: 0.1, 0.25 and 0.5 mg/ml, 24 hour period, FIGURE 10B; for death of corneal cells: FIGURE 10A
Procedure: In vitro cytotoxicity studies were performed in intact rabbit cornea. Proparacaine (0.5 mM, 1 mM, 5 mM, and 10 mM), tetracaine (0.5 mM, 1 mM, 5 mM, and 10 mM), NT71 (0.1 mg/ml (0.13 mM), 0.25 mg/ml (0.32 mM), and 0.5 mg/ml (0.63 mM)), NT72 (0.1 mg/ml (0.15 mM), 0.25 mg/ml (0.38 mM), and 0.5 mg/ml (0.76 mM)), and 70% MeOH were added to intact rabbit corneas. The percentage of living cells was determined over a 24 hour period using light microscopy and fluorescence. As apparent from FIGURE 10A, tetracaine was cytotoxic to the corneal cells at concentrations as low as 0.5 mM, resulting in the death of about half of the corneal cells observed.

[2] = tested on: primary rabbit corneal epithelial cells; test: In vitro scratch assay, cell migration and scratch closure; format: cell-based; conditions: 0.1 mg/ml and 0.5 mg/ml; FIGURES 7-9
Procedure: The limbus was removed from both eyes of anesthetized rabbits and dissected to include 1.0 to 1.5 mm peripheral cornea and 1.0 to 1.5 mm beyond the anatomical limbus. Each limbus was divided into four small segments. Two segments were used for each 60 mm square plate.
Cultured rabbit corneal epithelial cells were utilized to measure the closure of a scratch made in a confluent epithelial monolayer in the presence of varying doses of the test compounds (0.1 mg/ml to 10 mg/ml). Uniform scratches were made in confluent monolayers of primary rabbit corneal epithelial cells ("in vitro scratch assay").
Individual cell migration assays were performed in the presence of the test compounds and compared with standard doses of tetracaine and proparacaine. Movement of cells from the edge of the scratch (wound) toward the middle of the scratch (wound) were measured over 24 hours. […] Cells in which NT71 and NT72 were added migrated at least 40 µm, alternatively at least 50 µm, alternatively at least 60 µm, alternatively at least 70 µm over 24 hours.
There was very little closure of the wounds in which proparacaine and tetracaine were added. […] In contrast, control cells substantially closed the defect within 24 hours.

[3] = tested on: rabbit cornea; test: In vivo superficial keratotomy, administration every 4 hours for 5 days; design: species or system rabbits
From the text: Anesthetized rabbits were placed under an operating microscope, a sterile lid speculum placed in the right eye, and a 6.5 mm trephine used to make a partial thickness epithelial cut centered on the pupil. A sterile beaver blade was used to remove the epithelium within the area of demarcation. A single drop of moxifloxacin 0.1% was instilled at the end of the procedure. The speculum was removed and the animal allowed to recover from the systemic anesthesia. The topical agent under investigation was placed in the eye every 4 hours for 5 days. […] The control animals underwent the same surgical procedure. At the end of the procedure, 0.5% proparacaine or vehicle was instilled in the eye every 4 hours.
Fluorescein (1%) was instilled into the eye at times 0, 1, 2, 6, 12, 36, 48, 72, 96, and 120 hours after the procedure and the size of the epithelial defect measured via slit lamp photography. The animals were scored for degree of blinking, tearing, conjunctival injection, anterior chamber inflammation, and intraocular pressure.

[4] = tested on: rabbit cornea; test: Wound healing after excimer laser keratectomy; format: in vivo, rabbits
Procedure: Anesthetized rabbits were placed under an operating microscope, a sterile lid speculum placed in the right eye, and a 6.5 mm excimer laser ablation of 75 microns centered on the pupil was made using a Ladarvision 4000 excimer laser. A single drop of moxifloxacin 0.1 % was used at the end of the procedure. SAR001 (NT71, 0.1% w/w), SAR002 (NT72, 0.1 % w/w), or NT69 was instilled at the end of the procedure and repeated at 4 hour intervals. Control animals underwent the same surgical procedure. Standard doses of tetracaine (0.5% w/w) or proparacaine (not shown) were instilled at the end of the procedure and at 4 hour intervals thereafter.
Fluorescein (1%) was instilled into the right eye at times 0, 1, 2, 6, 12, 36, 48, 72, 96, and 120 hours after the procedure and the size of the epithelial defect measured via slit lamp photography. Degree of blinking, tearing, conjunctival injection, anterior chamber inflammation, and intraocular pressure were evaluated.

[5] = tested on: rabbit cornea; test: In vivo superficial keratotomy, administration every 2 hours for 36 hours; design: species or system rabbits
Procedure: In vivo superficial keratotomy experiments were performed on rabbits to access healing effects in an animal model.
Starting with equivalent circular wounds of 6.5 mm diameter (33 mm^2), after 36 hrs of administration every 2 hours of 1 mg/mL NT71(SAR001), NT72 (SAR002), tetracaine or saline (control), the persistent epithelial defect (wound) size was: • Control (saline) 4 mm^2 • Tetracaine 14.4 mm^2 • SAR001 2.8 mm^2 • SAR002 4.8 mm^2

Structure (SMILES): CN[C@@H](CCCNC(=N)N)C(=O)N[C@@H](CCN)C(=O)N1CCC[C@H]1C(=O)N[C@@H](Cc1cccc2[nH]ccc12)C(=O)N[C@H](C(=O)N[C@@H](CC(C)C)C(=O)O)C(C)(C)C [NT71] (H-[NMeR][Dab]P[Ala(indol-4-yl)][Tle]L-OH)
- corneal cells died, compared to untreated cells [1]: < 20%

Structure (SMILES): CC(C)C[C@H](NC(=O)[C@@H](NC(=O)[C@H](Cc1cccc2[nH]ccc12)NC(=O)[C@@H]1CCCN1C(=O)[C@H](N)CCCCN)C(C)(C)C)C(=O)O [NT72] (H-[dK]P[Ala(indol-4-yl)][Tle]L-OH)
- corneal cells died, compared to untreated cells [1]: < 20%

Structure (SMILES): CCCOc1ccc(C(=O)OCCN(CC)CC)cc1N [proparacaine]
- death of corneal cells ([1]; 5 mM): almost all
- closure of scratch [2]: did not close
- animals with incomplete disappearance of the defect ([3]; at 96-120 hours, 0.5% proparacaine every 4 hours): 40%
- time to disappearance of epithelial defect ([3]; every 4 hours for 5 days, neurotensin analogs 0.6 mg/ml, proparacaine 0.5%): 96 to 120 h

Structure (SMILES): CCCCNc1ccc(C(=O)OCCN(C)C)cc1 [tetracaine]
- death of corneal cells ([1]; 0.5 mM): about half
- death of corneal cells ([1]; 1 mM): almost all
- closure of scratch [2]: did not close
- rate of scratch closure as compared to control [2]: greatest delay in monolayer closure
- time to disappearance of epithelial defect ([4]; instilled at 4 hour intervals, SAR001, SAR002 0.1% w/w, tetracaine 0.5% w/w, FIGURE 11): 96 to 110 h
- animals with incomplete disappearance of the defect ([4]; tetracaine 0.5% w/w at 4 hour intervals): 50%
- persistent epithelial defect (wound) size ([5]; after 36 hrs, 1 mg/mL every 2 hours, starting wound 33 mm^2): 14.4 mm^2
- state of wound ([5]; after 48 hours): residual epithelial defect was still present
